In publication PMC5029629, “β-casein nanovehicles for oral delivery of chemotherapeutic drug combinations overcoming P-glycoprotein-mediated multidrug resistance in human gastric cancer cells” (Oncotarget, 2016):

Target: T1, β-casein (β-CN) (Bos taurus, UniProt P02666)
T1 construct: gene CSN2
T1 sequence (P02666 16-224): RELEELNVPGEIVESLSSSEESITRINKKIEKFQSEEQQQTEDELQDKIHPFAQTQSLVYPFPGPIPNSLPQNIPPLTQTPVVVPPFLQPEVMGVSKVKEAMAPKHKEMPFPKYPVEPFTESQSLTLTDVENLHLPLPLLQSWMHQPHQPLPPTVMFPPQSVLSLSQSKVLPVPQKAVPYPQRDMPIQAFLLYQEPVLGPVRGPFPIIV
Assay: Trp143 fluorescence quenching, modified Stern-Volmer fit (combined static and dynamic)
Type: binding
Details: PBS pH 7.0, 0.1 M ionic strength, 2.5% DMSO, 23 °C, 1 mg/ml protein (micelles); KSV called association constant but also defined as Stern-Volmer overall quenching constant; ligand poorly soluble
Source text: Trp143 fluorescence quenching, modified Stern-Volmer fit (combined static and dynamic) on β-casein (β-CN)

SMILES	KSV ± SE (10^4 M^-1)
CC(=O)O[C@H]1C(=O)[C@@]2(C)[C@H]([C@H](OC(=O)c3ccccc3)[C@]3(O)C[C@H](OC(=O)[C@H](O)[C@@H](NC(=O)c4ccccc4)c4ccccc4)C(C)=C1C3(C)C)[C@]1(OC(C)=O)CO[C@@H]1C[C@@H]2O [Paclitaxel]	0.96 ± 0.07 10^4 M^-1
COc1cc2c(cc1OC)CN(CCc1ccc(NC(=O)c3cc(OC)c(OC)cc3NC(=O)c3cnc4ccccc4c3)cc1)CC2 [Tariquidar]	1.80 ± 0.16 10^4 M^-1
